Results taken from publication PMC3767936 (Journal of cellular biochemistry, 2010).
pIC50: −log10 of the molar value.

Molecular target: T1, 20S proteasome (chymotrypsin-like activity) (Oryctolagus cuniculus, UniProt G1T4Q9)
T1 sequence (G1T4Q9 1-263): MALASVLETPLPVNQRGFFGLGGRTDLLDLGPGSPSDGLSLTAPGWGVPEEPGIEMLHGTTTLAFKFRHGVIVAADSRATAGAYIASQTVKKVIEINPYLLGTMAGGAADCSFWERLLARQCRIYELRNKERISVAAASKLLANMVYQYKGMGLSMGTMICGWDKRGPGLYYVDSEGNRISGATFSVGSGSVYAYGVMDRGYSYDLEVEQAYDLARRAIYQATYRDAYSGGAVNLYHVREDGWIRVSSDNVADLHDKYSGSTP
Assay: fluorogenic Suc-LLVY-AMC hydrolysis by purified […] proteasome, […] h at […]°C
Format: biochemical

`CCOC(=O)CN(C)C1=[S+][Au-]([Br])([Br])[S]1` [AUL12, [AuBr2(ESDT)]] was tested. Which pIC50 did it give?
The pIC50 was 5.95.
